Article PMC10387993, “New pyrimidine-N-β-D-glucosides: synthesis, biological evaluation, and molecular docking investigations” (Turkish Journal of Chemistry, 2023)
≈ marks a conversion by molar mass, not a printed value. Where two headings read alike, the source gives them in different places.

What was measured:
Type in all cases: cell-based
A549 = assay: cells; conditions: Homo sapiens
Procedure, shortened: (§1)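 In this MTT proliferation screen, formazan formed over 4 h was read at 560 nm against a 690 nm reference. Each line was tested at least three times, and the IC50 was taken as the concentration inhibiting half of the cells.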

C6 (Rat brain glioma) = assay: cells; conditions: Rattus norvegicus
Procedure, shortened: as §1

HT29 = assay: cells; conditions: Homo sapiens
Procedure, shortened: as §1

HeLa = assay: cells; conditions: Homo sapiens
Procedure, shortened: as §1

Hep3B = assay: cells; conditions: Homo sapiens
Procedure, shortened: as §1

MCF7 = assay: cells; conditions: Homo sapiens
Procedure, shortened: as §1

normal FL cells = assay: cells; conditions: FL normal cells, MTT
Procedure, shortened: as §1

[1] = system: A. actinomycetemcomitans ATCC 33384; assay: Microdilution MIC assay; conditions: Aggregatibacter actinomycetemcomitans, ATCC33384; A. actinomycetemcomitans ATCC 33384, 24 h at 35 °C
Procedure, shortened: (§2)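 Microwell dilution; 24 h, 35 °C; visual read; MIC = lowest conc. without turbidity.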

E. coli ATCC 25922 = assay: Microdilution MIC assay; conditions: Escherichia coli, ATCC25922; E. coli ATCC 25922, 24 h at 35 °C
Procedure, shortened: as §2

E. coli ESBL ATCC 35218 = assay: Microdilution MIC assay; conditions: Escherichia coli, ATCC35218; E. coli ESBL ATCC 35218, 24 h at 35 °C
Procedure, shortened: as §2

E. faecalis ATCC 29212 = assay: Microdilution MIC assay; conditions: Enterococcus faecalis, ATCC29212, 24 h, E. faecalis ATCC 29212, 24 h at 35 °C; read-out: MIC
Procedure, shortened: as §2

[2] = system: E. faecalis VRE ATCC 19433; assay: Microdilution MIC assay; conditions: Enterococcus faecalis; E. faecalis VRE ATCC 19433, 24 h at 35 °C
Procedure, shortened: as §2

[3] = system: P. aeruginosa AGME ATCC 27853; assay: Microdilution MIC assay; conditions: Pseudomonas aeruginosa, ATCC27853; P. aeruginosa AGME ATCC 27853, 24 h at 35 °C
Procedure, shortened: as §2

S. aureus ATCC 25923 = assay: Microdilution MIC assay; conditions: Staphylococcus aureus, ATCC25923, 24 h, S. aureus ATCC 25923, 24 h at 35 °C; read-out: MIC
Procedure, shortened: as §2

[4] = system: S. aureus MRSA ATCC 46300; assay: Microdilution MIC assay; conditions: Staphylococcus aureus; S. aureus MRSA ATCC 46300, 24 h at 35 °C; read-out: MIC
Procedure, shortened: as §2

[5] = system: S. aureus MSSA ATCC 29213; assay: Microdilution MIC assay; conditions: Staphylococcus aureus, 24 h, S. aureus MSSA ATCC 29213, 24 h at 35 °C; read-out: MIC
Procedure, shortened: as §2

S. gordonii NCTC 7870 = assay: Microdilution MIC assay; conditions: Streptococcus gordonii, NCTC7870; S. gordonii NCTC 7870, 24 h at 35 °C
Procedure, shortened: as §2

S. mutans ATCC 35668 = assay: Microdilution MIC assay; conditions: S. mutans ATCC 35668, 24 h at 35 °C
Procedure, shortened: as §2

CC(=O)OC[C@H]1O[C@@H](Nc2nc(-c3ccncc3)cc(-c3ccccc3C)n2)[C@H](OC(C)=O)[C@@H](OC(C)=O)[C@@H]1OC(C)=O [Compound 12, 2,3,4,6-tetra-O-acetyl-N-[4-(2-methylphenyl)-6-pyridin-4-ylpyrimidin-2-yl]-β-D-glucopyranosylamine]
LC50 (concentration causing 50% net cell loss) (A549; A549, read-out: LC50): > 500 µg/mL
GI50 (A549; A549, MTT): > 500 µg/mL
IC50 (A549; A549, MTT, read-out: IC50): > 500 µg/mL
IC (total growth inhibition) (A549; A549, MTT, read-out: TGI): > 500 µg/mL
LC50 (concentration giving 50% net cell loss relative to time zero) (C6 (Rat brain glioma); read-out: LC50): 139 µg/mL (≈ 234 µM)
GI50 (C6 (Rat brain glioma); C6, MTT): 2.03 µg/mL (≈ 3.43 µM)
IC50 (C6 (Rat brain glioma); C6, MTT, read-out: IC50): 13 µg/mL (≈ 21.9 µM)
IC (total growth inhibition) (C6 (Rat brain glioma); C6, MTT, read-out: TGI): 6.49 µg/mL
LC50 (concentration giving 50% net cell loss relative to time zero) (HT29; HT-29, read-out: LC50): > 500 µg/mL
GI50 (HT29; HT-29, HT29, MTT): 2.23 µg/mL (≈ 3.76 µM)
IC50 (HT29; HT-29, HT29, MTT, read-out: IC50): 298 µg/mL (≈ 503 µM)
IC (total growth inhibition) (HT29; HT-29, HT29, MTT, read-out: TGI): > 500 µg/mL
GI50 (HeLa; MTT): > 500 µg/mL
IC50 (HeLa; MTT, read-out: IC50): > 500 µg/mL
IC (total growth inhibition) (HeLa; MTT, read-out: TGI): > 500 µg/mL
LC50 (concentration causing 50% net cell loss) (HeLa; read-out: LC50): > 500 µg/mL
GI50 (Hep3B; MTT): 4.88 µg/mL (≈ 8.23 µM)
IC50 (Hep3B; MTT, read-out: IC50): > 500 µg/mL
IC (total growth inhibition) (Hep3B; MTT, read-out: TGI): > 500 µg/mL
LC50 (concentration causing 50% net cell loss relative to time zero) (Hep3B; read-out: LC50): > 500 µg/mL
LC50 (concentration causing 50% net cell loss relative to time zero) (MCF7; MCF7, read-out: LC50): > 500 µg/mL
GI50 (MCF7; MCF7, MTT): 1.22 µg/mL (≈ 2.06 µM)
IC50 (MCF7; MCF7, MTT, read-out: IC50): > 500 µg/mL
IC (total growth inhibition) (MCF7; MCF7, MTT, read-out: TGI): > 500 µg/mL
GI50 (normal FL cells): 3.68 µg/mL (≈ 6.21 µM)
IC50 (normal FL cells; read-out: IC50): > 500 µg/mL
IC (total growth inhibition) (normal FL cells; read-out: TGI): > 500 µg/mL
MIC [1]: > 1000 µg/mL
MIC (E. coli ATCC 25922): > 1000 µg/mL
MIC (E. coli ESBL ATCC 35218): > 1000 µg/mL
MIC (E. faecalis ATCC 29212): 250 µg/mL (≈ 422 µM)
MIC [2]: 1000 µg/mL (≈ 1690 µM)
MIC [3]: > 1000 µg/mL
MIC (S. aureus ATCC 25923): > 1000 µg/mL
MIC [4]: 500 µg/mL (≈ 844 µM)
MIC [5]: 1000 µg/mL (≈ 1690 µM)
MIC (S. gordonii NCTC 7870): > 1000 µg/mL
MIC (S. mutans ATCC 35668): 62.5 µg/mL (≈ 105 µM)
MIC (S. mutans ATCC 35668; Streptococcus mutans, ATCC35668, 24 h, read-out: MIC): 62.5 to 125 µg/mL (≈ 105 to 211 µM)
